Experiments:
BDNF = conditions: humans; plasma, healthy volunteers, 14-day Phase 1 study; cited from earlier work
PD95, GluR1 = conditions: in vivo; cited from earlier work
[1] = Double-blind placebo controlled randomized clinical trial in major depressive disorder; type: in vivo, human
mRNA for NMDAR1 = conditions: in vitro; cited from earlier work
serotonin receptors = conditions: Rickli et al, 2018; cited from earlier work

CCC(=O)C(C[C@H](C)N(C)C)(c1ccccc1)c1ccccc1 [Dextromethadone]
BDNF (BDNF): increases BDNF
levels of PD95, GluR1 (PD95, GluR1): increases levels of PD95, GluR1
persistence of remission ([1]; after discontinuation of treatment): persisted for at least seven days after discontinuation of treatment
patients with remission of disease (MADRS<10) ([1]; within the first week of treatment, 5% in patients randomized to placebo): over 30%
mRNA for NMDAR1 (mRNA for NMDAR1): increases mRNA for NMDAR1

CN1CC[C@@]23c4c5ccc(O)c4O[C@@H]2[C@H](O)C=C[C@@H]3[C@@H]1C5 [Levomorphine]
actions at serotonin receptors (serotonin receptors): no actions at serotonin receptors

Reference: patent publication US20230192715A1 (priority 2020, published 2023)
